{"source": "patent US20230233617A1", "about": "“METHODS FOR DIFFERENTIATING STEM CELLS INTO DOPAMINERGIC PROGENITOR CELLS” (JZ CELL TECHNOLOGIES AB, priority 2020, published 2023)", "key": {"[1]": {"system": "hESCs", "assay": "Conversion of hPSCs into NSCs (OCT4, SOX1, PAX6 expression) in dSMADi cultures", "assay_type": "cell-based, human", "description": "To explore the activities of RA on hESCs directed to adopt a neural fate in response to dSMADi^14, we treated cultures with 200 nM all-trans RA for the first 1, 2, 3 or 4 days of differentiation (RA^1D, RA^2D, RA^3D, RA^4D) (FIG. 1a) and monitored fate and identity of cells at different stages by immunoblotting, quantitative immunocytochemistry, qPCR or RNA-sequencing (RNA-seq). […] Induction of SOX1 and PAX6 at low levels occurred at 3 DDC (FIG. 1b). OCT4 and SOX1 were co-expressed by cells between 3-4 DDC (FIG. 1b, c; FIG. 7a (Supplementary FIG. 1a)) showing that the conversion of hPSCs into NSCs in response to dSMADi-treatment encompass a protracted time-window over which expression of pluripotency- and neural-specific genes overlap. […] By 7 DDC, SOX1 and neural marker NESTIN were expressed at similar levels in dSMADi-only and in dSMADi+RA^2D cultures (FIG. 1d). […] Endodermal or mesodermal lineage markers were not expressed (FIG. 7b (Supplementary FIG. 1b)). In dSMADi+RA^2D conditions, prompt suppression of OCT4 and fast upregulation of SOX1 was attained within a concentration range of RA between 50-500 nM (FIG. 1g). […] Thus, combining dSMADi treatment with exposure of hPSCs to RA for 48 hours or longer promotes a rapid and switch-like transition from pluripotency into a NSC-state.\n80-90% confluent PSCs cultures were rinsed twice with PBS, treated with EDTA (0.5 mM in PBS) for 5-7 min, and resuspended into single cell suspension in PBS. Cells were spin down at 400 g and resuspended in N2B27 medium (DMEM/F12: Neurobasal (1:1), 0.5×N2 and 0.5×B27 (plus vitamin A) supplements, 1×nonessential amino acids, 1% GlutaMAX, 55 μM β-mercaptoethanol-all from Thermo Fisher Scientific) containing 5 μM SB431542 (Miltenyi Biotech) and 2.5 μM DMH1 (Santa Cruz Biotech) (dual SMAD inhibition), and 10 μM ROCK inhibitor (for the first 48 hours after seeding). Cells were seeded on VTN (2 μg/cm^2) and Fibronectin (FN) (2 μg/cm^2) (Sigma) coated surface at a density of 60,000-80,000 cells/cm^2 for RA- and RA-analogues based experiments, and 20,000 cells/cm^2 for CHIR99021 experiments. […]"}, "[2]": {"system": "CYP26A1", "assay": "CYP26A1 expression in hPSC cultures", "assay_type": "cell-based, human", "conditions": "50-1,000 nM RA, dSMADi", "quoted_text": "(d) Effect of RA concentration (50, 100, 300, 500 and 1,000 nM RA) on CYP26A1 expression in 1 DDC cultures differentiated in dSMADi-condition. (e) Temporal expression profile of CYP26A1 in cultures differentiated in dSMADi and pulsed with no RA or 300, 500 or 1,000 nM of RA for 2 days. […] (g) Relative gene expression of indicated genes in 9 DDC cultures differentiated in RA^1D+SAG condition and in the presence of different concentrations of the CYP26 inhibitor R115866. […] (c-e) values, mean±S.D.\nTotal RNA was isolated using Quick-RNA Mini Prep Plus kit (Zymo Research). cDNA was prepared using Maxima First Strand cDNA synthesis kit (Thermo Fisher Scientific). Quantitative Real-Time PCR was performed in a 7500 Fast Real Time PCR system thermal cycler using Fast SYBR Green PCR Master Mix (Applied Biosystems). Analysis of gene expression was performed using the 2-ΔΔCt method, where relative gene expression was normalized to GAPDH transcript levels."}}}
{"smiles": "CC1=C(/C=C/C(C)=C/C=C/C(C)=C/C(=O)O)C(C)(C)CCC1", "note": "[RA, all-trans retinoic acid]", "values": [{"measurement": "rapid OCT4 suppression and fast upregulation of SOX1", "setting": "[1]; 200 nM RA for one day (dSMADi+RA^1D)", "value": "not sufficient to promote rapid OCT4 suppression nor fast upregulation of SOX1"}, {"measurement": "OCT4 expression", "setting": "[1]; dSMADi and 200 nM RA for two days or longer", "value": "expression of OCT4 had essentially been extinguished by 3 DDC"}, {"measurement": "concentration range of RA giving prompt suppression of OCT4 and fast upregulation of SOX1", "setting": "[1]; dSMADi+RA^2D, 3 DDC", "value": "50 to 500", "unit": "nM"}, {"measurement": "CYP26A1 expression", "setting": "[2]", "value": "concentration-dependent activation and adaptive temporal expression of CYP26A1"}]}
